Data on two compounds can be found in ChEMBL document CHEMBL6074678, “Selectively Antagonizing the NOD1-Mediated Inflammatory Signaling Pathway Mitigates the Gastric Inflammation Induced by Helicobacter pylori Infection” (J Med Chem, 2024).

A short description of data set [1]: Metabolic stability in human hepatocytes assessed as half life at 10 uM measured after 120 mins by LC-MS analysis. The class given is ADME, cell-based, Hepatocyte.
Data set [2] deals with T1, Nucleotide-binding oligomerization domain-containing protein 1 (Mus musculus, UniProt Q8BHB0).
T1 sequence (Q8BHB0 whole entry): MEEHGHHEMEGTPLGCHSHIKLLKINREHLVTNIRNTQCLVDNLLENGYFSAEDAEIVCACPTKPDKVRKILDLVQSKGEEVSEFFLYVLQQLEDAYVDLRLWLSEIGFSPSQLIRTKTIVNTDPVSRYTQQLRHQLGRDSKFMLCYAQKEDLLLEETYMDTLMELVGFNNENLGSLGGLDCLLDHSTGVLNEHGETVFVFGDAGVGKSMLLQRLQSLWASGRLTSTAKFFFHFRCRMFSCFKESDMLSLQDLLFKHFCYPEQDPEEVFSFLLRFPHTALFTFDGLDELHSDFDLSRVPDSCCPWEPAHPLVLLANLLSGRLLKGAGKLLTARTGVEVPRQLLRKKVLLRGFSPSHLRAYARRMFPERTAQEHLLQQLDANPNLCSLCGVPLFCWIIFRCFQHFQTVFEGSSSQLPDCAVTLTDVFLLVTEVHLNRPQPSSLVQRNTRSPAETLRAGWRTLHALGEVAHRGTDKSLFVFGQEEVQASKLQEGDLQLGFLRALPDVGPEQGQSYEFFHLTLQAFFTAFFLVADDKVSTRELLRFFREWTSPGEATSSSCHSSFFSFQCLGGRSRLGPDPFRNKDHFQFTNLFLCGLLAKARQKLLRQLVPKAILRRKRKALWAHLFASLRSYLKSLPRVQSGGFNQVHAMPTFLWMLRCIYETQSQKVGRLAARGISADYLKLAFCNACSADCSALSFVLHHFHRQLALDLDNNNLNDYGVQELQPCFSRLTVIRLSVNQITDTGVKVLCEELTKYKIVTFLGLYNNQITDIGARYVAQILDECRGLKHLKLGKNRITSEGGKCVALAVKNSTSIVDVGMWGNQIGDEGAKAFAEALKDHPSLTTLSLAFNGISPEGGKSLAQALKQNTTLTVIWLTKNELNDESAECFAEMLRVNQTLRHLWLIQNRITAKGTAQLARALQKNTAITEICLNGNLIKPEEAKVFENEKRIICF
Briefly: Antagonist activity at mouse NOD1 expressed in HEK-Blue cells assessed as decrease in SEAP secretion incubated for 3 hrs followed by C12-iE-DAP stimulation for 20 hrs by spectrophotometry. In kind it is cell-based, HEK-Blue mNOD1.

A short description of data set [3]: Metabolic stability in mouse hepatocytes assessed as intrinsic clearance measured per million cells at 10 uM measured after 120 mins by LC-MS analysis. In kind it is ADME, cell-based, Hepatocyte. As to conditions: 2 h.
Data set [4] is described as follows: Metabolic stability in mouse liver microsomes assessed as half life at 1.25 uM preincubated for 5 mins followed by NADPH addition measured upto 120 mins by LC-MS/MS analysis. As to conditions: time < 125 min. The class given is ADME, Microsome.
Data set [5] in a line: Metabolic stability in human hepatocytes assessed as hepatic clearance at 10 uM measured after 120 mins by LC-MS analysis. The class given is ADME, cell-based, Hepatocyte.
Data set [6] in a line: Metabolic stability in human liver microsomes assessed as half life at 1.25 uM preincubated for 5 mins followed by NADPH addition measured upto 120 mins by LC-MS/MS analysis. In kind it is ADME, Microsome. Conditions: time < 125 min. (In general: Microsomes from liver hold many membrane-bound enzymes, among them those of drug oxidation.)
The nature of data set [7]: Metabolic stability in mouse liver microsomes assessed as hepatic clearance at 1.25 uM preincubated for 5 mins followed by NADPH addition measured upto 120 mins by LC-MS/MS analysis. In kind it is ADME, Microsome. Conditions: time < 125 min.
A short description of data set [8]: Metabolic stability in human liver microsomes assessed as hepatic clearance at 1.25 uM preincubated for 5 mins followed by NADPH addition measured upto 120 mins by LC-MS/MS analysis. In kind it is ADME, Microsome. As to conditions: time < 125 min.
The nature of data set [9]: Metabolic stability in mouse liver microsomes assessed as intrinsic clearance at 1.25 uM preincubated for 5 mins followed by NADPH addition measured upto 120 mins by LC-MS/MS analysis. The class given is ADME, Microsome. As to conditions: time < 125 min, read-out: CLH.
A short description of data set [10]: Metabolic stability in mouse hepatocytes assessed as half life at 10 uM measured after 120 mins by LC-MS analysis. The class given is ADME, cell-based, Hepatocyte.
A short description of data set [11]: Metabolic stability in human hepatocytes assessed as intrinsic clearance measured per million cells at 10 uM measured after 120 mins by LC-MS analysis. As to conditions: read-out: CLH. The class given is ADME, cell-based, Hepatocyte.
The target of data set [12] is T2, Nucleotide-binding oligomerization domain-containing protein 1 (Homo sapiens, UniProt Q9Y239).
T2 sequence (Q9Y239 whole entry): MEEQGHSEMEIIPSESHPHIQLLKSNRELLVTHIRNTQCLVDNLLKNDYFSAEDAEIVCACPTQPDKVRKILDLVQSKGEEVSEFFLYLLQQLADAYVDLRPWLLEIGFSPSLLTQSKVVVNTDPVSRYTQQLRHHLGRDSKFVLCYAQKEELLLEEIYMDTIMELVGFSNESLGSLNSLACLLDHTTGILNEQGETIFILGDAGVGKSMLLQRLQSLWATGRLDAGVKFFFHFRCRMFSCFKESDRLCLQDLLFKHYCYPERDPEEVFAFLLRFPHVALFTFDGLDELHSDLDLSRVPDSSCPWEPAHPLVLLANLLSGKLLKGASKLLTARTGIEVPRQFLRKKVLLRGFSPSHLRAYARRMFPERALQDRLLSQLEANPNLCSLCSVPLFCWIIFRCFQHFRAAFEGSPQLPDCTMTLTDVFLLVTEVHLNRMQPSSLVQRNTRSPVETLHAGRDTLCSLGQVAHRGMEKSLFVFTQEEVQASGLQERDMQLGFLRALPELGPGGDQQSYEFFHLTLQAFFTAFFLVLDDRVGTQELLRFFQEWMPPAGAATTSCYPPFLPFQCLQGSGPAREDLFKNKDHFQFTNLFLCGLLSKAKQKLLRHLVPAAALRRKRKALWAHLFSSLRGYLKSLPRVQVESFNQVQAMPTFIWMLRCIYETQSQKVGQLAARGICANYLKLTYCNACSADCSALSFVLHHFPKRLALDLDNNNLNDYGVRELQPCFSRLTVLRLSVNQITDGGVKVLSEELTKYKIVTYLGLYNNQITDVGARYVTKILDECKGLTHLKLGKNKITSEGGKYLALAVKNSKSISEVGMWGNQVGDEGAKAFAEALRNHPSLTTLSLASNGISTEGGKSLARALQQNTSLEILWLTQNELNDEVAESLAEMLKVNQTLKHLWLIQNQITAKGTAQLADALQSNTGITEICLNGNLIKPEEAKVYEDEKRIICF
The data set is described as follows: Antagonist activity at human NOD1 expressed in HEK-Blue cells assessed as decrease in SEAP secretion incubated for 3 hrs followed by C12-iE-DAP stimulation for 20 hrs by spectrophotometry. In kind it is cell-based, HEK-Blue hNOD1.

Data set [13] has as its target T3, Nucleotide-binding oligomerization domain-containing protein 1 (Mus musculus) (UniProt Q8BHB0).
T3 sequence (whole entry): T1 sequence (Q8BHB0 whole entry)
Briefly: Antagonist activity at mouse NOD1 expressed in HEK-Blue cells assessed as decrease in SEAP secretion at 1 uM incubated for 3 hrs followed by C12-iE-DAP stimulation for 20 hrs by spectrophotometry relative to control. As to conditions: HEK-Blue mNOD1, filed as antagonist, time 23.0 hrs. In kind it is cell-based.

Data set [14] is described as follows: Metabolic stability in human liver microsomes assessed as intrinsic clearance at 1.25 uM preincubated for 5 mins followed by NADPH addition measured upto 120 mins by LC-MS/MS analysis. The class given is ADME, Microsome. Conditions: time < 125 min, read-out: CLH.
Data set [15] concerns the target T3, Nucleotide-binding oligomerization domain-containing protein 1 (Mus musculus). The data set is described as follows: Antagonist activity at mouse NOD1 expressed in HEK-Blue cells assessed as decrease in SEAP secretion at 5 uM incubated for 3 hrs followed by C12-iE-DAP stimulation for 20 hrs by spectrophotometry relative to control. The class given is cell-based. Conditions: HEK-Blue mNOD1, filed as antagonist, time 23.0 hrs.

Data set [16] addresses T4, Nucleotide-binding oligomerization domain-containing protein 2 (Homo sapiens, UniProt Q9HC29). Briefly: Antagonist activity at human NOD2 expressed in HEK293 cells assessed as decrease in MDP-stimulated IL-8 release incubated for 24 hrs by fluorescence based assay. In kind it is cell-based.
Data set [17] concerns the target T4, Nucleotide-binding oligomerization domain-containing protein 2. Briefly: Inhibition of human NOD2 at 1 uM relative to control.

T4 sequence (Q9HC29 whole entry, the tested form may be a part): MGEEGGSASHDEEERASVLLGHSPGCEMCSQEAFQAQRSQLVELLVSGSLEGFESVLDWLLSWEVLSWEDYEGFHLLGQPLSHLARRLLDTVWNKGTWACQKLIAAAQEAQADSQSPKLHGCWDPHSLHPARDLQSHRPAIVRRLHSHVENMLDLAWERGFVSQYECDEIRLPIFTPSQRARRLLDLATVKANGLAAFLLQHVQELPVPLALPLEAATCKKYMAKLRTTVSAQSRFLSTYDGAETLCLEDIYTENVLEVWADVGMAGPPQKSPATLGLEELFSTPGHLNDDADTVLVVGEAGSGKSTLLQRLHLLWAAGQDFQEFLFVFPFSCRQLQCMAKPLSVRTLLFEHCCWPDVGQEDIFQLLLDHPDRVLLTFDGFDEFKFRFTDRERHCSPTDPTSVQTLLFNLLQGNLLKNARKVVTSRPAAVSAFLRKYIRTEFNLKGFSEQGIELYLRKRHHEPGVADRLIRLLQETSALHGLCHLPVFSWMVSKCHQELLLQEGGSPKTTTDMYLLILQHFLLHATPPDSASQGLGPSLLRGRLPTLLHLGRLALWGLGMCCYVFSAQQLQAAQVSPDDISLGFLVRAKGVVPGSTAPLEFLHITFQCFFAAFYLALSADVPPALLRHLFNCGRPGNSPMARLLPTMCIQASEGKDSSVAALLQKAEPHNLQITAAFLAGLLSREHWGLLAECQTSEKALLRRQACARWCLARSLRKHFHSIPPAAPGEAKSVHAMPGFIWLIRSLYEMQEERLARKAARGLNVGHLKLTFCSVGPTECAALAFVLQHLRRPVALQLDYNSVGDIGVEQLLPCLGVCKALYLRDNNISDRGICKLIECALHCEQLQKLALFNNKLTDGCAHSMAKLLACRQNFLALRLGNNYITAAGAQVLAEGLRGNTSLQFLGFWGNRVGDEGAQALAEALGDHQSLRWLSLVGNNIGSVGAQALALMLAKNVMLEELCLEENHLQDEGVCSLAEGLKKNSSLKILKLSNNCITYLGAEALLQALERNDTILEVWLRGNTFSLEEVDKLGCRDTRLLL

As for `O=c1c2ccncc2nc(Cl)n1-c1ccc(Cl)c(NS(=O)(=O)c2ccccc2F)c1`, the half-life – broadly, the time in which the quantity being followed falls by half – at 10 µM worked out at 11.6 min in data set [1] and 2.3 min in data set [10]. For the same compound, the IC50 – broadly, the point on the concentration scale where inhibition reaches its midpoint – stood at 344 nM in [2] and 4.1 nM in data set [12]. In addition, the CLH in data set [3] worked out at 307.2 µL/min. Also, the half-life at 1.25 µM in data set [4] and in [6] was over 186 min each time. Moreover, in [5], the CLhep predicted at 10 µM is 18.6 mL/min/kg. The results for the CLhep predicted at 1.25 µM in data set [7] and in [8] were under 22.1 mL/min/kg and under 6.1 mL/min/kg, respectively. Further, the microsomal CLint at 1.25 µM in [9] and in data set [14] was under 7.4 µL/min/mg each time. In data set [11], the hepatocyte CLint at 10 µM was 59.5 µL/min/1e6 cells. Besides, in [13], the inhibition (usually the drop in the measured response relative to a control, in per cent) stood at 83.9%.

With `Cc1nc2ccc(Cl)cc2c(=O)n1-c1ccc(Cl)c(NS(=O)(=O)c2ccccc2F)c1`, the IC50 in [2] was 6920 nM; in [16], over 20000 nM. Moreover, the inhibition in data set [15] is 49.4%; in data set [17], under 10%.
